9 molecules from ChEMBL document CHEMBL5223124, “Recent applications of covalent chemistries in protein-protein interaction inhibitors” (RSC Med Chem, 2022) can be followed below.

Structures are written as SMILES.

Chain of Induced myeloid leukemia cell differentiation protein Mcl-1 (Q07820 whole entry): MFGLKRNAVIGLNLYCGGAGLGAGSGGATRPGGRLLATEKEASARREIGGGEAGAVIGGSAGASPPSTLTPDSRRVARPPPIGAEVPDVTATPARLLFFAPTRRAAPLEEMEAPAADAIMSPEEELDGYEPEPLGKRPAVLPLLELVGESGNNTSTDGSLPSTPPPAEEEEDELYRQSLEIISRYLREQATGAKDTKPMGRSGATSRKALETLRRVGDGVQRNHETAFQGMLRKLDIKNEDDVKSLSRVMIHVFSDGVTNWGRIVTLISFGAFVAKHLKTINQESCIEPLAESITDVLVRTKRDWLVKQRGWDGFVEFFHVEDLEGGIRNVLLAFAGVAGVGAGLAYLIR

In one assay the target is E3 ubiquitin-protein ligase Mdm2 (Homo sapiens, UniProt Q00987). Nature of the assay: Binding affinity to HDM2 (unknown origin).
Chain of E3 ubiquitin-protein ligase Mdm2 (Q00987 whole entry): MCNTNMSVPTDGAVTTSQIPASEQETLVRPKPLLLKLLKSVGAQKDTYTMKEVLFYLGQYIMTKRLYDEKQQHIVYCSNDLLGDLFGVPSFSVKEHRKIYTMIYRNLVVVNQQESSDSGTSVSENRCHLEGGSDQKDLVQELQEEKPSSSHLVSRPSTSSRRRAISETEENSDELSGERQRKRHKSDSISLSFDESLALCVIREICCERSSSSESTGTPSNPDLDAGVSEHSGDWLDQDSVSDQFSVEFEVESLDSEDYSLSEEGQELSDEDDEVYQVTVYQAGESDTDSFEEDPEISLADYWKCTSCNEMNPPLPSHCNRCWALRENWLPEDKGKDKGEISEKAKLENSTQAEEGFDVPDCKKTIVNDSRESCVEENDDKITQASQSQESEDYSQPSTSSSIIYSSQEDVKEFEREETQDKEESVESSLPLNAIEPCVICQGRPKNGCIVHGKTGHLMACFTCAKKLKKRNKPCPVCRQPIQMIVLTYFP
Consider `COc1ccc(C2=NC(c3ccc(Cl)cc3)C(c3ccc(Cl)cc3)N2C(=O)N2CCN(C(=O)CCCNC(=O)CCCC(=O)N(CC#N)S(=O)(=O)c3ccccc3)CC2)c(OC(C)C)c1` (centres undefined), for which binding was characterised by a dissociation constant (Kd) of 570 nM.

Another assay concerns the target Induced myeloid leukemia cell differentiation protein Mcl-1 (Homo sapiens, UniProt Q07820). Briefly: Inhibition of MCL-1 in human MOLP8 cells assessed as increase in caspase 3/7 activation. The class given is cell-based.
`Cc1c(-c2cccc3c(CCCOc4cccc5ccccc45)c(C(=O)O)[nH]c23)c(COc2ccccc2)nn1C`: the half-maximal effective concentration (EC50) was > 11000 nM.

As for `CCc1nn(C)c(CC)c1-c1cccc2c(CCCOc3cccc4ccccc34)c(C(=O)O)n(CCN3CCOCC3)c12`, the EC50 was determined as 340 nM.

For `CC(=O)c1cc(OCc2nn(C)c(C)c2-c2cccc3c(CCCOc4cccc5ccccc45)c(C(=O)O)[nH]c23)ccc1B(O)O`, the EC50 came out at 1170 nM. With `Cc1c(-c2cccc3c(CCCOc4cccc5ccccc45)c(C(=O)O)[nH]c23)c(COc2ccc(B(O)O)cc2)nn1C`, the 50% effective concentration (EC50) is > 11000 nM. In the case of `CC(=O)c1cccc(OCc2nn(C)c(C)c2-c2cccc3c(CCCOc4cccc5ccccc45)c(C(=O)O)[nH]c23)c1`, the 50% effective concentration (EC50) was determined as 2700 nM. With `Cc1c(-c2cccc3c(CCCOc4cccc5ccccc45)c(C(=O)O)[nH]c23)c(COc2ccc(B(O)O)c(C=O)c2)nn1C`, the EC50 turned out to be 460 nM. As to `Cc1c(-c2cccc3c(CCCOc4cccc5ccccc45)c(C(=O)O)n(C)c23)c(COc2ccc(B(O)O)c(C=O)c2)nn1C`, the EC50 was 75 nM. Still for that read-out and setting: the result for `Cc1c(-c2cccc3c(CCCOc4cccc5ccccc45)c(C(=O)O)[nH]c23)c(COc2cccc(C=O)c2)nn1C` reads > 11000 nM.
